Nine molecules from US11208404B2 (PERENNA PHARMACEUTICALS, INC., priority 2017, dated 2021) can be followed below.

In experiment [1] the target is T1, ALCAT1 (Homo sapiens (Human), UniProt Q6UWP7). Put plainly: In vitro acyltransferase assay for ALCAT1 inhibitors. It counts as biochemical. The conditions noted are these: for IC50: ALCAT1 enzyme activity. Put shortly: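 Membrane fractions from Sf9 cells expressing human ALCAT1 incubated 30 min at room temperature with 100 µM MLCL or LPG and 25 µM [14C]acyl-CoA (or 100 µM NBD-CoA) in 50 mM Tris/HCl pH 7.0.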
Target sequence in this assay (Q6UWP7 whole entry): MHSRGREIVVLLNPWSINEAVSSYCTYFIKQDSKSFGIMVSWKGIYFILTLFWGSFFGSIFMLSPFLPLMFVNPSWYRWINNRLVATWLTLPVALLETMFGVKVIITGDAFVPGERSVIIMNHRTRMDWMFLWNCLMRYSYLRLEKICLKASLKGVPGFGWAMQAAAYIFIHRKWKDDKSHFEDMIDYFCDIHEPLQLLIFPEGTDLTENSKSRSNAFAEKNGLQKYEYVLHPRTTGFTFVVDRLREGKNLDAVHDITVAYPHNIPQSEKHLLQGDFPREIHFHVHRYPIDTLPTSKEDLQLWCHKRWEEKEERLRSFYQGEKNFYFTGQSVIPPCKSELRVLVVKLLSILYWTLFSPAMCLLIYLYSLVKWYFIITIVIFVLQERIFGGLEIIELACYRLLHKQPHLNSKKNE

Experiment [2] addresses T1, ALCAT1. Briefly: Cell-based assay for ALCAT inhibitor compounds (H9C2 cells). The conditions noted are these: H9c2, 3 μM compound; H9C2 vector cell line and H9C2 with stable overexpression of ALCAT1. As to the method:
The assay was performed on the H9C2 vector cell line and H9C2 with stable overexpression of ALCAT1. Materials used in the protocol were CoA, LPG, compounds, chloroform, methanol, 0.9% KCl, 6-well-plates, 1.5 mL tubes, DMEM, FBS, P/S and PBS.
Cells were seeded in 6-well-plates, 8×10^5 cells/well, and cultured at 37° C. in 5% CO2 overnight.
Cells were washed once with ice-cold PBS, collected in ice-cold PBS and centrifuged at 5000 rpm for 5 min at 4° C. 200 μL of chloroform: methanol (2:1) was added to the cell pellet, which was vortexed to suspend the cells and incubated at RT for 1 hr.
40 μL of 0.9% KCl was added and the sample was vortexed before centrifugation at 10000 rpm for 5 min at RT. The aqueous phase (upper layer) was discarded and the organic phase (lower layer) was loaded to a TLC plate (10 cm×20 cm), 40 μL/sample.
The plates were developed in chloroform: methanol: water (65:25:4) for about 30 min and scanned using a Typhoon Scanner. The bands intensity was analysed using ImageJ and the inhibition activity of the tested compounds was calculated.
Compound inhibitors for ALCAT1 enzyme were analyzed by an in vitro cell-based assay as detailed above.
Target sequence in this assay (Q6UWP7 whole entry, species assumed): as the sequence (Q6UWP7 whole entry) above

The mark [3] stands for this setting: 1 μM compound, in vitro enzymatic assay.
Where [4] appears, read: triplicates, GraphPad, read-out: IC50.
[5] abbreviates: read-out: IC50 values (upper bounds).

As a reminder, the inhibition is the relative decrease from the control value, in per cent. For orientation: IC50 means the concentration that inhibits the measured activity by half.

Where two headings read alike, the source gives them in different places. Bounds are passed on as bounds.

With `Cc1ccc(OCCF)c(C(=O)Nc2cc(-c3nnc(-c4ccco4)o3)ccc2F)c1` [Compound 321, N-(2-Fluoro-5-(5-(furan-2-yl)-1,3,4-oxadiazol-2-yl)phenyl)-2-(2-fluoroethoxy)-5-methylbenzamide], at ALCAT1 [1] (setting [3]), the “% inh @ 1 μM” value worked out at 92% and the inhibition at 1 µM was determined as 94%. On ALCAT1 [1] (setting [4]), the IC50 amounted to 0.038 µM. The inhibition at 3 µM on ALCAT1 [2] turned out to be 75%.

On ALCAT1 [1] (setting [3]), `Cc1ccc(OCC(F)(F)F)c(C(=O)Nc2cc(-c3nnc(-c4ccco4)o3)ccc2F)c1` [Compound 322, N-(2-fluoro-5-(5-(furan-2-yl)-1,3,4-oxadiazol-2-yl)phenyl)-5-methyl-2-(2,2,2-trifluoroethoxy)benzamide] came in with an inhibition at 1 µM of 94%. Moreover, the IC50 at ALCAT1 [1] (setting [4]) came out at 0.061 µM. This molecule also returned an inhibition at 3 µM on ALCAT1 [2] of 26%.

Take `Cc1ccc(OCC(F)F)c(C(=O)Nc2cc(-c3nnc(-c4ccco4)o3)ccc2F)c1` [Compound 323, 2-(2,2-Difluoroethoxy)-N-(2-fluoro-5-(5-(furan-2-yl)-1,3,4-oxadiazol-2-yl)phenyl)-5-methylbenzamide]: at ALCAT1 [1] (setting [3]), the inhibition at 1 µM came out at 96%. Besides, the IC50 at ALCAT1 [1] (setting [5]) was under 0.1 µM; on ALCAT1 [1] (setting [4]) it was 0.026 µM. At ALCAT1 [2], this molecule registered an inhibition at 3 µM of 14%.

For the molecule `CCOc1ccc(CC)cc1C(=O)Nc1cc(-c2nnc(-c3ccco3)o2)ccn1` [Compound 373, 2-Ethoxy-5-ethyl-N-(4-(5-(furan-2-yl)-1,3,4-oxadiazol-2-yl)pyridin-2-yl)benzamide], the inhibition at 1 µM on ALCAT1 [1] (setting [3]) turned out to be 98%. In addition, the IC50 at ALCAT1 [1] (setting [4]) came to 0.038 µM. At ALCAT1 [2], this molecule showed an inhibition at 3 µM of 3%.

For the molecule `COc1ccc(C(F)(F)F)cc1C(=O)Nc1cc(-c2nnc(-c3ccco3)o2)ccn1` [Compound 396, N-(4-(5-(Furan-2-yl)-1,3,4-oxadiazol-2-yl)pyridin-2-yl)-2-methoxy-5-(trifluoromethyl)benzamide], at 1 µM the inhibition against ALCAT1 [1] (setting [3]) was 96%. In addition, at ALCAT1 [1] (setting [4]), the concentration for half-maximal inhibition (IC50) amounted to 0.078 µM. This molecule had an inhibition at 3 µM at ALCAT1 [2] of 45%.

On ALCAT1 [1] (setting [3]), `COc1ccc(OC(F)(F)F)cc1C(=O)Nc1cc(-c2nnc(-c3ccco3)o2)ccn1` [Compound 400, N-(4-(5-(Furan-2-yl)-1,3,4-oxadiazol-2-yl)pyridin-2-yl)-2-methoxy-5-(trifluoromethoxy)benzamide] came in with an inhibition at 1 µM of 96%. In addition, the IC50 on ALCAT1 [1] (setting [4]) was 0.062 µM. In addition, at ALCAT1 [2], the inhibition at 3 µM was 50%.

For `COc1ccc(OC(F)(F)F)cc1C(=O)Nc1cc(-c2nnc(-c3ccco3)o2)ccc1F` [Compound 405, N-(2-Fluoro-5-(5-(furan-2-yl)-1,3,4-oxadiazol-2-yl)phenyl)-2-methoxy-5-(trifluoromethoxy)benzamide], testing at 1 µM against ALCAT1 [1] (setting [3]) gave an inhibition of 98%. Besides, the IC50 at ALCAT1 [1] (setting [5]) was under 0.1 µM; at ALCAT1 [1] (setting [4]), 0.019 µM. At ALCAT1 [2], this molecule registered an inhibition at 3 µM of 52%.

For the molecule `COc1ccc(C(F)(F)F)cc1C(=O)Nc1cc(-c2nnc(-c3ccco3)o2)ccc1F` [Compound 416, N-(2-Fluoro-5-(5-(furan-2-yl)-1,3,4-oxadiazol-2-yl)phenyl)-2-methoxy-5-(trifluoromethyl)benzamide], the inhibition at 1 µM on ALCAT1 [1] (setting [3]) was 98%. The IC50 on ALCAT1 [1] (setting [5]) is under 0.1 µM; on ALCAT1 [1] (setting [4]) it was 0.019 µM. The molecule also gave an inhibition at 3 µM against ALCAT1 [2] of 45%.

On to `CCOc1ccc(CC)cc1C(=O)N(c1cc(-c2nnc(-c3ccco3)o2)ccc1F)P(=O)(O)O` [Compound 497, (2-ethoxy-5-ethylbenzoyl) (2-fluoro-5-(5-(furan-2-yl)-1,3,4-oxadiazol-2-yl)phenyl)phosphoramidic acid], for which the inhibition at 1 µM against ALCAT1 [1] (setting [3]) is 90%. At ALCAT1 [1] (setting [4]), the IC50 is 0.072 µM. The inhibition at 3 µM against ALCAT1 [2] is 75%.
